Results: patent publication EP4491649A1, “DUAL CURABLE OLIGOMERS” (ARKEMA FRANCE, priority 2023, dated 2025)

Experiments:
Type in all cases: physicochemical
[1] = Viscosity of the oligomers (Brookfield RVDV-II+ Pro, #28 spindle); details: 20 rpm
Protocol: The viscosity of the oligomers was measured using a Brookfield RVDV-II+ Pro instrument at a temperature of 60°C using a #28 spindle and a rotational speed of 20 rpm. Moreover, the viscosity of the oligomers was measured with a Brookfield RVDV-II+ Pro instrument at a temperature of 25°C using a #28 spindle and a rotational speed of 10 rpm.

[2] = Epoxy Equivalent Weight (EEW), ASTM D1763-1981
Protocol: The EEW was measured in accordance with ASTM D1763-1981.

[3] = Refractive index (RX-7000 α, ATAGO)
Protocol: The refractive index of the oligomers was measured using a RX-7000 α from AT AGO at a temperature of 25°C.

[4] = Storage stability (thermal test, viscosity before/after 48 hours at 65°C, alone or mixed with ADH)
Protocol: The storage stability tests were performed by placing the oligomer to be tested, alone or mixed with ADH (as a curing agent), at 65°C for 48 hours (thermal test), and measuring their viscosity (cps@60C).

[5] = Mechanical performance of cured compositions (tensile strength, modulus, elongation at break, ASTM D638)
Protocol: These mechanical properties were measured in accordance with ASTM D638.
The mechanical performance tests were performed on compositions comprising the oligomer to be tested mixed with SR506, photoinitiators and/or curing agents, as detailed in Tables 4, 5 and 6 below.
Tests UV + Thermal cure: 80 wt.% of oligomers were mixed with 20 wt. % of SR506. To this mixture were added 3 wt.% of TPO and 1 wt.% of 2E4MZ (based on the total weight of oligomers + SR506).
Tests UV cure: 80 wt.% of oligomers were mixed with 20 wt. % of SR506. To this mixture was added 3 wt.% of TPO (based on the total weight of oligomers + SR506).
Tests Thermal cure: 80 wt.% of oligomers were mixed with 20 wt.% of SR506. To this mixture was added 1 wt.% of 2E4MZ (based on the total weight of oligomers + SR506).

[6] = Thermal Cure, 80 wt.% oligomer + 20 wt.% SR506, then 1 wt.% 2E4MZ
[7] = UV + Thermal Cure, 80 wt.% oligomer + 20 wt.% SR506, then 3 wt.% TPO + 1 wt.% 2E4MZ
[8] = UV Cure, 80 wt.% oligomer + 20 wt.% SR506, then 3 wt.% TPO

With `C=CC(=O)OCC(O)COc1ccc(C(C)(C)c2ccc(OCC3CO3)cc2)cc1` (stereo not drawn) [Reference] the “Viscosity (60°C)” value [1] was 2390 mPa.s, the “Viscosity (60°C)” value ([1]; listed as Comparative oligomer) was “around 2390 mPa.s” and the EEW ([2]; Table 2) was 1020 g/ep. For the same compound, the EEW ([2]; synthesis text) was 1020 g/eq, the “Refractive Index (25°C)” value [3] was 1.5633 and the “viscosity change after storage” value ([4]; 65°C for 48h, not mixed with ADH) was “no significant viscosity change”. The “Viscosity (cps@60C) After storage 48h, 65°C” value ([4]; after storage 48h at 65°C, measured at 60C) was 2,450 cps, the “Viscosity (cps@60C) Initial” value ([4]; initial, measured at 60C) was 2,390 cps and the “state of composition after storage” value ([4]; mixed with 20 wt.% ADH, 48h at 65°C) was “becomes gelled”. For the same compound, the “Elongation at break (%)” value [5, 6] was 2.095%, the Tensile modulus [5, 6] was 2,037 and the “Tensile strength (Mpa)” value [5, 6] was 43.33 Mpa. For the same compound, the “Elongation at break (%)” value [5, 7] was 1.86%, the Tensile modulus [5, 7] was 4027 and the “Tensile strength (Mpa)” value [5, 7] was 73.39 Mpa. For the same compound, the “Elongation at break (%)” value [5, 8] was 2.32%, the Tensile modulus [5, 8] was 2722 and the “Tensile strength (Mpa)” value [5, 8] was 62.9 Mpa.
